Data reported in ChEMBL document CHEMBL3885861, “Open TG-GATES”.

Species on record: Rattus norvegicus
Assay: Open TG-GATES - Regimen: Single
Format: toxicity, organism-based, Sprague-Dawley
Parameters: regimen Single, gender Male, age 6 weeks
Details: in vivo, po, 500 mg/kg, route gavage, dose level High; for APTT / Bas / Eos / Fbg / Hb / Ht / Lym / MCH / MCHC / MCV / Mono / Neu / PT / Plat / RBC / Ret / WBC: tissue Blood; for KIDNEY_L / KIDNEY_R / KIDNEY_TOTAL: tissue Kidney; for LIVER: tissue Liver; for A/G / ALP / ALT / AST / BUN / CRE / Ca / Cl / DBIL / GLC / IP / K / LDH / Na / PL / RALB / TBIL / TC / TG / TP / gamma-GTP: tissue Plasma

## CC(=O)Oc1cc(C(C)C)c(OCCN(C)C)cc1C [MOXISYLYTE]
3 h
  TERMINAL_BW: 212.3 g
  APTT: 21.6 s
  Bas: 0%
  Eos: 1.2%
  Fbg: 311.2 mg/dL
  Hb: 12.6 g/dL
  Ht: 37.4%
  Lym: 72.6%
  MCH: 21.4 pg
  MCHC: 33.7%
  MCV: 63.2 fL
  Mono: 2%
  Neu: 23.6%
  PT: 16 s
  Plat: 115.9 x10_4/uL
  RBC: 590.6 x10_4/ul
  Ret: 8.3%
  WBC: 64.3 x10_2/uL
  KIDNEY_L: 0.9 g
  KIDNEY_R: 1 g
  KIDNEY_TOTAL: 1.9 g
  LIVER: 9.7 g
  A/G: 1.4
  ALP: 1326.8 IU/L
  ALT: 43 IU/L
  AST: 81.6 IU/L
  BUN: 14.6 mg/dL
  CRE: 0.1 mg/dL
  Ca: 10.6 mg/dL
  Cl: 107.8 meq/L
  DBIL: 0.014 mg/dL
  GLC: 196.8 mg/dL
  IP: 10.3 mg/dL
  K: 4.5 meq/L
  LDH: 251 IU/L
  Na: 142.2 meq/L
  PL: 132.2 mg/dL
  RALB: 3.1 g/dL
  TBIL: 0.028 mg/dL
  TC: 79 mg/dL
  TG: 33.8 mg/dL
  TP: 5.5 g/dL
  gamma-GTP: 1 IU/L
6 h
  TERMINAL_BW: 211.5 g
  APTT: 21.2 s
  Bas: 0%
  Eos: 1%
  Fbg: 318.6 mg/dL
  Hb: 13 g/dL
  Ht: 38%
  Lym: 77%
  MCH: 21.2 pg
  MCHC: 34.1%
  MCV: 62.1 fL
  Mono: 2.2%
  Neu: 19.2%
  PT: 15.6 s
  Plat: 119.7 x10_4/uL
  RBC: 611.8 x10_4/ul
  Ret: 8.1%
  WBC: 63.2 x10_2/uL
  KIDNEY_L: 1 g
  KIDNEY_R: 1 g
  KIDNEY_TOTAL: 2 g
  LIVER: 9.8 g
  A/G: 1.3
  ALP: 1572.4 IU/L
  ALT: 40.6 IU/L
  AST: 75.2 IU/L
  BUN: 11.8 mg/dL
  CRE: 0.1 mg/dL
  Ca: 10.5 mg/dL
  Cl: 107.8 meq/L
  DBIL: 0.014 mg/dL
  GLC: 194.2 mg/dL
  IP: 10 mg/dL
  K: 4.5 meq/L
  LDH: 239 IU/L
  Na: 141 meq/L
  PL: 141.6 mg/dL
  RALB: 3.1 g/dL
  TBIL: 0.026 mg/dL
  TC: 75.4 mg/dL
  TG: 42.4 mg/dL
  TP: 5.5 g/dL
  gamma-GTP: 1.2 IU/L
9 h
  TERMINAL_BW: 205.5 g
  APTT: 20.8 s
  Bas: 0%
  Eos: 0.8%
  Fbg: 351 mg/dL
  Hb: 13.6 g/dL
  Ht: 40.1%
  Lym: 69.2%
  MCH: 21.4 pg
  MCHC: 33.9%
  MCV: 63.3 fL
  Mono: 2.6%
  Neu: 27.4%
  PT: 15.8 s
  Plat: 124.5 x10_4/uL
  RBC: 633.8 x10_4/ul
  Ret: 7.8%
  WBC: 68.7 x10_2/uL
  KIDNEY_L: 0.9 g
  KIDNEY_R: 1 g
  KIDNEY_TOTAL: 1.9 g
  LIVER: 9.1 g
  A/G: 1.2
  ALP: 1633.4 IU/L
  ALT: 41 IU/L
  AST: 76.6 IU/L
  BUN: 11.4 mg/dL
  CRE: 0.1 mg/dL
  Ca: 10.4 mg/dL
  Cl: 108.6 meq/L
  DBIL: 0.018 mg/dL
  GLC: 196.6 mg/dL
  IP: 9.9 mg/dL
  K: 4.3 meq/L
  LDH: 223.6 IU/L
  Na: 142.2 meq/L
  PL: 142 mg/dL
  RALB: 3.1 g/dL
  TBIL: 0.034 mg/dL
  TC: 74.8 mg/dL
  TG: 49.4 mg/dL
  TP: 5.7 g/dL
  gamma-GTP: 1.2 IU/L
24 h
  TERMINAL_BW: 215.6 g
  APTT: 19.4 s
  Bas: 0%
  Eos: 0.8%
  Fbg: 300.6 mg/dL
  Hb: 13.4 g/dL
  Ht: 38.6%
  Lym: 76.4%
  MCH: 22.1 pg
  MCHC: 34.7%
  MCV: 63.6 fL
  Mono: 2%
  Neu: 20%
  PT: 15.8 s
  Plat: 140.3 x10_4/uL
  RBC: 607.2 x10_4/ul
  Ret: 8.2%
  WBC: 111.6 x10_2/uL
  KIDNEY_L: 1 g
  KIDNEY_R: 1 g
  KIDNEY_TOTAL: 1.9 g
  LIVER: 10.4 g
  A/G: 1.2
  ALP: 1455.6 IU/L
  ALT: 44.8 IU/L
  AST: 73.4 IU/L
  BUN: 18 mg/dL
  CRE: 0.1 mg/dL
  Ca: 11.1 mg/dL
  Cl: 106.4 meq/L
  DBIL: 0 mg/dL
  GLC: 176.8 mg/dL
  IP: 8.6 mg/dL
  K: 4.1 meq/L
  LDH: 241 IU/L
  Na: 142 meq/L
  PL: 149.8 mg/dL
  RALB: 3 g/dL
  TBIL: 0.006 mg/dL
  TC: 77 mg/dL
  TG: 100.6 mg/dL
  TP: 5.6 g/dL
  gamma-GTP: 1 IU/L
